Test results as given in PubChem BioAssay AID256 (DTP/NCI, 2004).
Toxic doses and inconclusive results are not listed. How the source made its calls: active means survival T/C of 150% or more; inactive means T/C below 125% in these data.

Test system: CD2F1 mice, L1210 leukemia ip, survival T/C
Assay: NCI In Vivo Anticancer Drug Screen. Data for tumor model L1210 Leukemia (intraperitoneal) in CD2F1 (CDF1) mice
Details: higher = longer survival
Procedure, shortened: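 Antitumor effect is scored in animals hosting a serially transplanted tumor. Values compare compound-dosed animals against vehicle-only controls as a simple quotient.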

[1] = endpoint: mean survival time, dose: 100.0 mg/kg/injection, schedule: Q04DX003 (ip), vehicle: saline with Tween-80
[2] = endpoint: mean survival time, dose: 200.0 mg/kg/injection, schedule: Q04DX003 (ip), vehicle: saline with Tween-80
[3] = endpoint: mean survival time, dose: 400.0 mg/kg/injection, schedule: Q04DX003 (ip), vehicle: saline with Tween-80
[4] = endpoint: mean survival time, dose: 12.5 mg/kg/injection, schedule: Q01DX009 (ip), vehicle: saline
[5] = endpoint: mean survival time, dose: 50.0 mg/kg/injection, schedule: Q01DX009 (ip), vehicle: saline with Tween-80
[6] = endpoint: mean survival time, dose: 75.0 mg/kg/injection, schedule: Q01DX001 (ip), vehicle: saline
[7] = endpoint: mean survival time, dose: 150.0 mg/kg/injection, schedule: Q01DX001 (ip), vehicle: saline
[8] = endpoint: mean survival time, dose: 300.0 mg/kg/injection, schedule: Q01DX001 (ip), vehicle: saline
[9] = endpoint: mean survival time, dose: 100.0 mg/kg/injection, schedule: Q01DX009 (ip), vehicle: saline with Tween-80
[10] = endpoint: mean survival time, dose: 200.0 mg/kg/injection, schedule: Q01DX009 (ip), vehicle: saline with Tween-80
[11] = endpoint: mean survival time, dose: 100.0 mg/kg/injection, schedule: Q04DX002 (ip), vehicle: saline
[12] = endpoint: mean survival time, dose: 200.0 mg/kg/injection, schedule: Q04DX002 (ip), vehicle: saline
[13] = endpoint: mean survival time, dose: 400.0 mg/kg/injection, schedule: Q04DX002 (ip), vehicle: saline
[14] = endpoint: mean survival time, dose: 12.5 mg/kg/injection, schedule: Q04DX003 (ip), vehicle: saline
[15] = endpoint: mean survival time, dose: 25.0 mg/kg/injection, schedule: Q04DX003 (ip), vehicle: saline
[16] = endpoint: mean survival time, dose: 100.0 mg/kg/injection, schedule: Q04DX002 (ip), vehicle: saline with Tween-80
[17] = endpoint: mean survival time, dose: 200.0 mg/kg/injection, schedule: Q04DX002 (ip), vehicle: saline with Tween-80
[18] = endpoint: mean survival time, dose: 400.0 mg/kg/injection, schedule: Q04DX002 (ip), vehicle: saline with Tween-80
[19] = endpoint: mean survival time, dose: 100.0 mg/kg/injection, schedule: Q01DX001 (ip), vehicle: saline with Tween-80
[20] = endpoint: mean survival time, dose: 200.0 mg/kg/injection, schedule: Q01DX001 (ip), vehicle: saline with Tween-80
[21] = endpoint: mean survival time, dose: 400.0 mg/kg/injection, schedule: Q01DX001 (ip), vehicle: saline with Tween-80

Measured: T/C

N#Cc1n[nH]c(C2OC(CO)C(O)C2O)c1O (stereo not given)
inactive: endpoint: median survival time, dose: 9.38 mg/kg/injection, schedule: Q01DX005 (ip), vehicle: water 104 % of control | endpoint: median survival time, dose: 18.75 mg/kg/injection, schedule: Q01DX005 (ip), vehicle: water 106 % of control | endpoint: median survival time, dose: 39.5 mg/kg/injection, schedule: Q01DX005 (ip), vehicle: water 109 % of control | endpoint: median survival time, dose: 79.0 mg/kg/injection, schedule: Q01DX005 (ip), vehicle: water 109 % of control | endpoint: median survival time, dose: 158.0 mg/kg/injection, schedule: Q01DX005 (ip), vehicle: water 109 % of control

Cc1cc(Cl)cc([N+](=O)[O-])c1
inactive: [1] 92 % of control | [2] 88 % of control | [3] 87 % of control

CCOC(=O)NNC(=O)OCC
inactive: endpoint: mean survival time, dose: 12.5 mg/kg/injection, schedule: Q01DX009 (ip), vehicle: saline with Tween-80 97 % of control | [4] 90 % of control | endpoint: mean survival time, dose: 25.0 mg/kg/injection, schedule: Q01DX009 (ip), vehicle: saline with Tween-80 96 % of control | endpoint: mean survival time, dose: 25.0 mg/kg/injection, schedule: Q01DX009 (ip), vehicle: saline 101 % of control | [5] 102 % of control | endpoint: mean survival time, dose: 50.0 mg/kg/injection, schedule: Q01DX009 (ip), vehicle: saline 105 % of control

c1c2c(cc3c1OCO3)CNCC2
inactive: endpoint: mean survival time, dose: 100.0 mg/kg/injection, schedule: Q01DX001 (ip), vehicle: saline 102 % of control

Cc1cc(CSC(=N)N)c(C)cc1CSC(=N)N
inactive: endpoint: mean survival time, dose: 5.0 mg/kg/injection, schedule: Q01DX009 (ip), vehicle: saline with Tween-80 92 % of control | endpoint: mean survival time, dose: 5.0 mg/kg/injection, schedule: Q04DX003 (ip), vehicle: saline with Tween-80 106 % of control | endpoint: mean survival time, dose: 10.0 mg/kg/injection, schedule: Q01DX009 (ip), vehicle: saline with Tween-80 101 % of control | endpoint: mean survival time, dose: 10.0 mg/kg/injection, schedule: Q04DX003 (ip), vehicle: saline with Tween-80 106 % of control | endpoint: mean survival time, dose: 20.0 mg/kg/injection, schedule: Q01DX009 (ip), vehicle: saline with Tween-80 95 % of control | endpoint: mean survival time, dose: 20.0 mg/kg/injection, schedule: Q04DX003 (ip), vehicle: saline with Tween-80 101 % of control

CCCCCC(C)NCCOC(=O)c1ccccc1 (stereo not given)
inactive: [6] 103 % of control | [7] 100 % of control | [8] 108 % of control

CCCCOC(=O)c1ccc(NC(=O)Nc2ccccc2Cl)cc1
inactive: [5] 89 % of control | [9] 86 % of control | [1] 91 % of control | [10] 96 % of control | [2] 100 % of control

CCOC(=O)C(CCC#N)(CCC#N)C(=O)O
inactive: [11] 98 % of control | [12] 111 % of control | [13] 117 % of control

C[C@]12CC[C@H](OC3OC(CO)C(O)C(O)C3O)C[C@H]1CC[C@@H]1[C@@H]2CC[C@]2(C)[C@@H](C3=CCOC3=O)CC[C@]12O (stereo not given in full)
inactive: endpoint: mean survival time, dose: 0.5 mg/kg/injection, schedule: Q01DX009 (ip), vehicle: saline 110 % of control | endpoint: mean survival time, dose: 1.0 mg/kg/injection, schedule: Q01DX009 (ip), vehicle: saline 110 % of control | endpoint: mean survival time, dose: 2.0 mg/kg/injection, schedule: Q01DX009 (ip), vehicle: saline 107 % of control | endpoint: median survival time, dose: 0.5 mg/kg/injection, schedule: Q01DX009 (ip), vehicle: saline 112 % of control | endpoint: median survival time, dose: 1.0 mg/kg/injection, schedule: Q01DX009 (ip), vehicle: saline 108 % of control | endpoint: median survival time, dose: 2.0 mg/kg/injection, schedule: Q01DX009 (ip), vehicle: saline 113 % of control | endpoint: median survival time, dose: 4.0 mg/kg/injection, schedule: Q01DX009 (ip), vehicle: saline 91 % of control

CC(=O)c1ccc[n+](Cc2c(Cl)cccc2Cl)c1
inactive: [14] 107 % of control | [15] 98 % of control | endpoint: mean survival time, dose: 50.0 mg/kg/injection, schedule: Q04DX003 (ip), vehicle: saline 96 % of control

CS(=O)(=O)C(Br)S(C)(=O)=O
inactive: endpoint: mean survival time, dose: 3.13 mg/kg/injection, schedule: Q01DX009 (ip), vehicle: saline 102 % of control | endpoint: mean survival time, dose: 6.25 mg/kg/injection, schedule: Q01DX009 (ip), vehicle: saline 102 % of control | endpoint: mean survival time, dose: 6.25 mg/kg/injection, schedule: Q04DX003 (ip), vehicle: saline 96 % of control | [4] 101 % of control | [14] 93 % of control | [15] 109 % of control

CCCn1c(O)c(C=N)c(=O)[nH]c1=O
inactive: [9] 101 % of control | [1] 91 % of control | [10] 111 % of control | [2] 92 % of control | [3] 94 % of control

COc1cc2c3cc1Oc1c(OC)c(OC)cc4c1C(Cc1ccc(O)c(c1)Oc1ccc(cc1)CC3N(C)CC2)CN(C)C4 (stereo not given)
inactive: [1] 101 % of control | [2] 93 % of control

CN(C)C(=O)Sc1c(S(=O)(=O)F)ccc(Cl)c1Cl
inactive: [16] 96 % of control | [17] 96 % of control | [18] 100 % of control

CC1(C)CC(NC(=O)CSc2ncnc3nc[nH]c23)CC(C)(C)N1O
inactive: endpoint: mean survival time, dose: 12.5 mg/kg/injection, schedule: Q01DX005 (ip), vehicle: saline 106 % of control | endpoint: mean survival time, dose: 25.0 mg/kg/injection, schedule: Q01DX005 (ip), vehicle: saline 98 % of control | endpoint: mean survival time, dose: 50.0 mg/kg/injection, schedule: Q01DX005 (ip), vehicle: saline 98 % of control | endpoint: mean survival time, dose: 100.0 mg/kg/injection, schedule: Q01DX005 (ip), vehicle: saline 98 % of control | endpoint: mean survival time, dose: 200.0 mg/kg/injection, schedule: Q01DX005 (ip), vehicle: saline 98 % of control

O/N=C(/Cc1ccccc1)c1ccccc1
inactive: [19] 100 % of control | [20] 92 % of control | [21] 90 % of control

CCOC(=O)C(C)S(=O)(=O)O (stereo not given)
inactive: [11] 91 % of control | [12] 100 % of control | [13] 100 % of control

Nc1ccc(S(=O)(=O)c2ccc(Nc3ccccc3)c(N)c2)cc1
inactive: [16] 97 % of control | [17] 94 % of control | [18] 97 % of control

CC(C)CCCCN(CCCCC(C)C)CC(O)c1cc2c(c3ccccc13)CCCC2 (stereo not given)
inactive: [19] 94 % of control | [20] 97 % of control | [21] 102 % of control

C[N+](C)(C)C(C1=CCCC1=O)c1ccccc1 (stereo not given)
inactive: [6] 103 % of control | [7] 91 % of control | [8] 100 % of control

COc1ccc(OC)c(C(=O)CCl)c1
inactive: [9] 100 % of control | [1] 96 % of control | [10] 102 % of control | [2] 101 % of control | [3] 92 % of control

CC12CCCCC1SC(F)(F)C2(F)F (stereo not given)
inactive: endpoint: mean survival time, dose: 12.5 mg/kg/injection, schedule: Q04DX003 (ip), vehicle: saline with Tween-80 111 % of control | endpoint: mean survival time, dose: 25.0 mg/kg/injection, schedule: Q04DX003 (ip), vehicle: saline with Tween-80 88 % of control | endpoint: mean survival time, dose: 50.0 mg/kg/injection, schedule: Q04DX003 (ip), vehicle: saline with Tween-80 103 % of control

CCOCCNCc1ccc(Cl)c(Cl)c1
inactive: [1] 93 % of control | [2] 94 % of control

S=C(NCCc1ccccc1)Nc1ccccc1
inactive: [1] 97 % of control | [2] 95 % of control | [3] 95 % of control

CCCC(C)C/C(C)=C/C(C)(C)C(CC(=O)N1CCOCC1)C(=O)O (stereo not given)
inactive: [5] 95 % of control | [9] 93 % of control | [1] 100 % of control | [2] 98 % of control
